Assays:
Colo205 tumor cells = test: Method A: Methylene Blue Growth Inhibition Assay, Colo205; assay type: cell-based; settings: Homo sapiens, COLO 205, 72 h, 3 days
Description: (§1) Human breast (BT474) and head and neck (HN5) tumor cells were cultured in low glucose DMEM (Life Technologies 12320-032) containing 10% fetal bovine serum (FBS). Human colon tumor cells (Colo205) were cultured in DMEM (Invitrogen, 10564) containing 10% FBS. The SV40 transformed human mammary epithelial cell line HB4a was transfected with either human H-ras cDNA (HB4a r4.2) or the human c-ErbB2 cDNA (HB4a c5.2). The HB4a clones were cultured in RPMI containing 10% FBS, insulin (5 g/mL), hydrocortisone (5 g/mL), supplemented with the selection agent hygromycin B (50 g/mL). All lines were grown in a humidified incubator at 37° C. in 95% air, 5% CO2. Cells were harvested using trypsin/EDTA, counted using a haemocytometer, and plated in 100 μL of the appropriate media, at the following densities, in a 96-well tissue culture plate (Falcon 3075): BT474 10,000 cells/well, HN5 3,000 cells/well. The next day, compounds were diluted in DMEM containing […] gentamicin, at twice the final required concentration, from 10 mM stock solutions in DMSO. 100 μl/well of these dilutions were added to the 100 μL of media currently on the cell plates. Medium containing 0.6% DMSO was added to control wells. Compounds diluted in DMEM were added to all cell lines. The final concentration of DMSO in all wells was 0.3%. Cells were returned to the incubator (37° C., […]) for 3 days. Medium was then removed by aspiration. Cell biomass was estimated by staining cells with 90 μL/well methylene blue (Sigma M9140, 0.5% in 1:1 EtOH:H2O), and incubation at room temperature for at least 30 minutes. Stain was removed, and the plates rinsed by immersion in deionized H2O and air-dried. To release stain from the cells 100 μL of solubilization solution were added (1% N-lauroyl sarcosine, sodium salt, Sigma L5125, in PBS), and plates were shaken gently for about 30 minutes. Optical density at 620 nm was measured on a microplate reader. Percent inhibition of cell growth was calculated relative to vehicle-treated control wells. Concentration of compound that inhibits 50% of control cell growth (IC50) was interpolated using nonlinear regression (Levenberg-Marquardt) and the equation,
(§2) y=Vmax*(1−(x/(K+x)))+Y2, where “K” was equal to the IC50.

HN5 tumor cells = test: Method A: Methylene Blue Growth Inhibition Assay, HN5; assay type: cell-based; settings: Homo sapiens, 72 h, 3 days
Description: as §1, §2

B-Raf = B-Raf (Homo sapiens, UniProt P15056); test: B-Raf Accelerated MEK ATPase assay (BRAMA); assay type: biochemical; settings: Method (A): BRAMA, kinetic read
Sequence of B-Raf (P15056 whole entry): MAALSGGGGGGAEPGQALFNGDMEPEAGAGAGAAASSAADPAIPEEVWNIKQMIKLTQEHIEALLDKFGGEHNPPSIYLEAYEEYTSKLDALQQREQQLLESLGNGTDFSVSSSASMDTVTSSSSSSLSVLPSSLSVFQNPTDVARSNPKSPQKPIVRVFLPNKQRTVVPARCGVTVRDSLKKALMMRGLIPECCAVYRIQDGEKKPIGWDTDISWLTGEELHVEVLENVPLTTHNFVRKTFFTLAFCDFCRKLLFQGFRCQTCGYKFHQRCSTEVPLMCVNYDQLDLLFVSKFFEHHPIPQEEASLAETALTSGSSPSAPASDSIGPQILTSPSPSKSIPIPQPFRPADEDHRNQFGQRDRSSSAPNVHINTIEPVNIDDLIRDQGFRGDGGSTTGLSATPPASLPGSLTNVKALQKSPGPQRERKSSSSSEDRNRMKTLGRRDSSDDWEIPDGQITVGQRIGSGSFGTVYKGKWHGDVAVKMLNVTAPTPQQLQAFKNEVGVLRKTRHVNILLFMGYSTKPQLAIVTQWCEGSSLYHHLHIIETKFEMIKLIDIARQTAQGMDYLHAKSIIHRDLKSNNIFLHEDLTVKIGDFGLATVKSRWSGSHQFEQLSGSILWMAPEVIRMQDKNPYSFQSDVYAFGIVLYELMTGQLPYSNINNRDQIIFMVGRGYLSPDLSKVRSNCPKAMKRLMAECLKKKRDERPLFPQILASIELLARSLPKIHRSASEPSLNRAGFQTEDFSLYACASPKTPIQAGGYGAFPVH
Description: Compounds of the present invention were tested for B-Raf protein serine kinase inhibitory activity in a B-Raf Accelerated MEK ATPase assay (BRAMA). The BRAMA assay is a high sensitivity assay which measures an intrinsic MEK-mediated ATP hydrolysis uncoupled from downstream ERK phosphorylation by coupling the formation of ADP to NADH oxidation through the enzymes pyruvate kinase and lactate dehydrogenase. When ADP production is initiated by addition of catalytic amounts of an activated Raf enzyme and non-phosphorylated MEK, one observes robust ADP production concomitant with Raf-mediated phosphorylation of MEK.
Method A: Specific details of the assay are disclosed in: C. Rominger, M. Schaber, E. May. Assay for B-Raf Activity Based on Intrinsic MEK ATPase Activity. Statutory Invention Registration Ser. No. 11/084,993 (March, 2005). Method B: The method is the same as method A, but includes the following changes: 1) the assay was performed with a final MEK concentration of 150 nM and 2) the assay was read as single end point instead of a kinetic read.

BT474 tumor cells = test: Method B: CellTiter-Glo Growth Inhibition Assay, BT474; assay type: cell-based; settings: Homo sapiens, BT-474, 72 h, 3 days
Outline: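 Cells plated (BT474 3,000, HN5 500, Colo205 3,000 per well) in RPMI or DMEM with 10% FBS; compounds added next day, final DMSO 0.3%, then 3 days at 37° C, 5% CO2. Viability by CellTiter-Glo luminescence; percent inhibition versus vehicle, IC50 interpolated by nonlinear regression.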

Row | IC50 (B-Raf) [nM] | SMILES | also measured
1 | – | COc1cc(Nc2nccc(-c3sc(N)nc3-c3cccc(NC(=O)c4c(F)cccc4F)c3)n2)cc(OC)c1OC [Example 16, N-[3-(2-Amino-5-{2-[(3,4,5-trimethoxyphenyl)amino]pyrimidiN-4-yl}-1,3-thiazol-4-yl)phenyl]-2,6-difluorobenzamide] | IC50 (Colo205 tumor cells): < 100 nM
2 | – | COc1ccc(Nc2nccc(-c3sc(N)nc3-c3cccc(NC(=O)c4c(F)cccc4F)c3)n2)cc1N1CCNCC1 [Example 18, N-[3-(2-Amino-5-{2-[(4-methoxy-3-piperaziN-1-ylphenyl)amino]pyrimidiN-4-yl}-1,3-thiazol-4-yl)phenyl]-2,6-difluorobenzamide] | IC50 (HN5 tumor cells): < 100 nM
3 | > 1000 | Cc1cc(-c2sc(N)nc2-c2cccc(NC(=O)c3c(F)cccc3F)c2)nc(Nc2cccc(F)c2)n1 [Example 48, N-[3-(2-Amino-5-{2-[(3-fluorophenyl)amino]-6-methyl-4-pyrimidinyl}-1,3-thiazol-4-yl)phenyl]-2,6-difluorobenzamide] | –
4 | 100 to 1000 | Cc1nc(-c2cccc(NC(=O)c3c(F)cccc3F)c2)c(-c2ccnc(Nc3ccc(OC4CCN(C(=O)OCc5ccccc5)CC4)c(F)c3)n2)s1 [Example 106] | –
5 | 100 to 1000 | CCc1nc(-c2cccc(NC(=O)c3c(F)cccc3F)c2)c(-c2ccnc(Nc3cccc(CN4CCCC4)c3)n2)s1 [Example 115, N-{3-[2-Ethyl-5-(2-{[3-(1-pyrrolidinylmethyl)phenyl]amino}-4-pyrimidinyl)-1,3-thiazol-4-yl]phenyl}-2,6-difluorobenzamide] | –
6 | – | Cc1nc(-c2cccc(NC(=O)c3cc(F)ccc3F)c2)c(-c2ccnc(Nc3ccc(OCCN(C)C)c(Cl)c3)n2)o1 [Example 142] | IC50 (BT474 tumor cells): > 1000 nM

Source: patent US20110098296A1, “Thiazole And Oxazole Kinase Inhibitors” (priority 2007, published 2011)
